# Test results published in ChEMBL document CHEMBL6078643, “Palladium-Mediated Bioorthogonal System for Prodrug Activation of N-Benzylbenzamide-Containing Tubulin Polymerization Inhibitors for the Treatment of Solid Tumors” (J Med Chem, 2024).
# Activity calls are given as the source filed them. No cut-off for these calls is given here.
# Columns and labels:
# HepG2 [1] = assay: Select factor, ratio of test compound IC50 to 5-fluoro-N-(3-hydroxy-4-methoxybenzyl)-2-morpholinobenzamide IC50 for antiproliferative activity against human HepG2 cells assessed as reduction in cell viability incubated for 72 hrs by CCK-8 assay; type: functional
# [2] = Antiproliferative activity against human THLE-2 cells assessed as reduction in cell viability incubated for 72 hrs by CCK-8 assay; type: toxicity, cell-based
# K562 [3] = assay: Select factor, ratio of test compound IC50 to 5-fluoro-N-(3-hydroxy-4-methoxybenzyl)-2-morpholinobenzamide IC50 for antiproliferative activity against human K562 cells assessed as reduction in cell viability incubated for 72 hrs by CCK-8 assay; type: functional
# [4] = Prodrug release in PBS buffer assessed as half release time of 5-fluoro-N-(3-hydroxy-4-methoxybenzyl)-2-morpholinobenzamide in presence of palladium resins at 75 uM by HPLC analysis; type: ADME
# K562 [5] = assay: Antiproliferative activity against human K562 cells assessed as reduction in cell viability incubated for 72 hrs by CCK-8 assay; type: functional, cell-based; settings: K562, 72 h
# [6] = Select factor, ratio of test compound IC50 to 5-fluoro-N-(3-hydroxy-4-methoxybenzyl)-2-morpholinobenzamide IC50 for antiproliferative activity against human THLE-2 cells assessed as reduction in cell viability incubated for 72 hrs by CCK-8 assay; type: toxicity, cell-based; settings: read-out: Ratio IC50
# H22 [7] = assay: Select factor, ratio of test compound IC50 to 5-fluoro-N-(3-hydroxy-4-methoxybenzyl)-2-morpholinobenzamide IC50 for antiproliferative activity against mouse H22 cells assessed as reduction in cell viability incubated for 72 hrs by CCK-8 assay; type: functional
# H22 [8] = assay: Antiproliferative activity against mouse H22 cells assessed as reduction in cell viability incubated for 72 hrs by CCK-8 assay; type: functional, cell-based; settings: H22, 72 h
# HepG2 [9] = assay: Antiproliferative activity against human HepG2 cells assessed as reduction in cell viability incubated for 72 hrs by CCK-8 assay; type: functional, cell-based; settings: HepG2, 72 h
# K562 [10] = assay: Select factor, ratio of test compound IC50 to 4-(((4-((4-methoxyphenyl)(methyl)amino)quinazolin-2-yl)amino)methyl)phenol IC50 for antiproliferative activity against human K562 cells assessed as reduction in cell viability incubated for 72 hrs by CCK-8 assay; type: functional
# H22 [11] = assay: Select factor, ratio of test compound IC50 to 4-(((4-((4-methoxyphenyl)(methyl)amino)quinazolin-2-yl)amino)methyl)phenol IC50 for antiproliferative activity against mouse H22 cells assessed as reduction in cell viability incubated for 72 hrs by CCK-8 assay; type: functional
# HepG2 [12] = assay: Select factor, ratio of test compound IC50 to 4-(((4-((4-methoxyphenyl)(methyl)amino)quinazolin-2-yl)amino)methyl)phenol IC50 for antiproliferative activity against human HepG2 cells assessed as reduction in cell viability incubated for 72 hrs by CCK-8 assay; type: functional
# [13] = Select factor, ratio of test compound IC50 to 4-(((4-((4-methoxyphenyl)(methyl)amino)quinazolin-2-yl)amino)methyl)phenol IC50 for antiproliferative activity against human THLE-2 cells assessed as reduction in cell viability incubated for 72 hrs by CCK-8 assay; type: toxicity, cell-based; settings: read-out: Ratio IC50
# [14] = Prodrug release in PBS buffer assessed as half release time of 4-(((4-((4-methoxyphenyl)(methyl)amino)quinazolin-2-yl)amino)methyl)phenol in presence of palladium resins at 75 uM by HPLC analysis; type: ADME
# K562 [15] = assay: Induction of cell cycle arrest in human K562 cells assessed as accumulation of cells at G1 phase at 20 nM incubated for 72 hrs by PI staining based flow cytometric analysis ( Rvb = 77.46 %); type: functional
# K562 [16] = assay: Induction of apoptosis in human K562 cells assessed as necrotic cells at 20 nM incubated for 72 hrs by Annexin V-APC staining based flow cytometric analysis (reference value: 1.65%); type: functional
# K562 [17] = assay: Antiproliferative activity against human K562 cells at 100 nM incubated for 72 hrs in presence of palladium resins by CCK-8 assay; type: functional, cell-based
# Tubulin (Homo sapiens) [18] = molecular target: T1, Tubulin (Homo sapiens) (UniProt P68371+Q9H4B7+P0DPH7+P68366+Q13509+Q71U36+P04350+Q3ZCM7+P07437+P68363+Q9BQE3+Q6PEY2+Q13885+Q9BVA1+Q9BUF5); assay: Disruption of microtubule organization in human K562 cells at 20 nM incubated for 72 hrs by DAPI staining based confocal microscopic analysis; type: cell-based
# Tubulin (Homo sapiens) [19] = molecular target: T1, Tubulin (Homo sapiens); assay: Inhibition of tubulin polymerization in human HepG2 cells assessed as decrease in beta tubulin expression at 19 nM incubated for 24 hrs by Western blotting analysis; type: cell-based
# Tubulin (Homo sapiens) [20] = molecular target: T1, Tubulin (Homo sapiens); assay: Inhibition of tubulin polymerization in human HepG2 cells assessed as decrease in alpha tubulin expression at 19 nM incubated for 24 hrs by Western blotting analysis; type: cell-based
# HepG2 [21] = assay: Antitumor activity against human HepG2 cells xenografted in Balb/c mouse assessed as cell necrosis at 20 mg/kg, iv administered daily for 14 days by H and E staining based analysis; type: functional, organism-based; settings: time 14.0 day
# Tubulin (Homo sapiens) [22] = molecular target: T1, Tubulin (Homo sapiens); assay: In vivo inhibition of tubulin polymerization in human HepG2 cells xenografted in Balb/c mouse assessed as decrease in alpha tubulin expression at 20 mg/kg, iv administered daily for 14 days incubated for 24 hrs by Western blot analysis; type: functional, organism-based; settings: time 14.0 day
# K562 [23] = assay: Induction of apoptosis in human K562 cells assessed as late apoptotic cells at 20 nM incubated for 72 hrs by Annexin V-APC staining based flow cytometric analysis (reference value: 1.36%); type: functional
# K562 [24] = assay: Induction of cell cycle arrest in human K562 cells assessed as accumulation of cells at S phase at 20 nM incubated for 72 hrs by PI staining based flow cytometric analysis ( Rvb = 14.04 %); type: functional
# Tubulin (Homo sapiens) [25] = molecular target: T1, Tubulin (Homo sapiens); assay: Inhibition of tubulin polymerization in human K562 cells assessed as decrease in beta tubulin expression at 16 nM incubated for 24 hrs by Western blotting analysis; type: cell-based
# [26] = molecular target: Bcr/Abl fusion protein (Homo sapiens) (UniProt P00519+P11274); assay: Inhibition of Bcr-Abl in human K562 cells at 16 nM incubated for 24 hrs by Western blotting analysis; type: cell-based
# Sequence of Bcr/Abl fusion protein (Homo sapiens) (P00519 whole entry, looked up, the tested form may be a part): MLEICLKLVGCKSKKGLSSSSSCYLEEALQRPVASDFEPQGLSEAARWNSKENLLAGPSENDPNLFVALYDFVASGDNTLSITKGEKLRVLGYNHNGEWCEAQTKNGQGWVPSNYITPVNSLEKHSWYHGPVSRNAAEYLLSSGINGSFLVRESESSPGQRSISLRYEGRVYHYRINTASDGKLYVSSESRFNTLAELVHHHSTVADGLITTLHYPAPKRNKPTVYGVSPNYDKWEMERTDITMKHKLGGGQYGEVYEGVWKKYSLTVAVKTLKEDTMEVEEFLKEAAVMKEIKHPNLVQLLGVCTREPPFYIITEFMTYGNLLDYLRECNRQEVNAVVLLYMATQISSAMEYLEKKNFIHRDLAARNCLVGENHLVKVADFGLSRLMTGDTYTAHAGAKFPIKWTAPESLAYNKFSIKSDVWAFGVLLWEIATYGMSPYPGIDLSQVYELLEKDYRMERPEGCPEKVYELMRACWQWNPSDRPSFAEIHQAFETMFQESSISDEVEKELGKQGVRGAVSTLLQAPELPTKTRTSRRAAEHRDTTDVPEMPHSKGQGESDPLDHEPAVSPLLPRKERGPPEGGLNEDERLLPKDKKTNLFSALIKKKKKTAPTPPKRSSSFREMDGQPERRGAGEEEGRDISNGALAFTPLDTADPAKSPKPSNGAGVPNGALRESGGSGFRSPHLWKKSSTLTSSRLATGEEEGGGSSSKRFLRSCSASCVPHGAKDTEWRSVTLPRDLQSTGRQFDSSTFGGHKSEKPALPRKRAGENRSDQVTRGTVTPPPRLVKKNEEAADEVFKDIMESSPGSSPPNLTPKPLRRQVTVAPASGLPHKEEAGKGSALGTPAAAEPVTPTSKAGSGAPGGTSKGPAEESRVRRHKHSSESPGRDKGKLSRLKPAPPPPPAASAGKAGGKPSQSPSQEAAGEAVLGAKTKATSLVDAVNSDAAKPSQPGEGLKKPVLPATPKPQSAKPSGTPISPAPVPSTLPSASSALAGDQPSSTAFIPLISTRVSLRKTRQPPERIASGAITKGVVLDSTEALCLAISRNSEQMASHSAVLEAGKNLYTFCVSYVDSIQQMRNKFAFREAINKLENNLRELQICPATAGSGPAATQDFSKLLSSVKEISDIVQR
# Sequence of Bcr/Abl fusion protein (Homo sapiens) (P11274 whole entry, looked up, the tested form may be a part): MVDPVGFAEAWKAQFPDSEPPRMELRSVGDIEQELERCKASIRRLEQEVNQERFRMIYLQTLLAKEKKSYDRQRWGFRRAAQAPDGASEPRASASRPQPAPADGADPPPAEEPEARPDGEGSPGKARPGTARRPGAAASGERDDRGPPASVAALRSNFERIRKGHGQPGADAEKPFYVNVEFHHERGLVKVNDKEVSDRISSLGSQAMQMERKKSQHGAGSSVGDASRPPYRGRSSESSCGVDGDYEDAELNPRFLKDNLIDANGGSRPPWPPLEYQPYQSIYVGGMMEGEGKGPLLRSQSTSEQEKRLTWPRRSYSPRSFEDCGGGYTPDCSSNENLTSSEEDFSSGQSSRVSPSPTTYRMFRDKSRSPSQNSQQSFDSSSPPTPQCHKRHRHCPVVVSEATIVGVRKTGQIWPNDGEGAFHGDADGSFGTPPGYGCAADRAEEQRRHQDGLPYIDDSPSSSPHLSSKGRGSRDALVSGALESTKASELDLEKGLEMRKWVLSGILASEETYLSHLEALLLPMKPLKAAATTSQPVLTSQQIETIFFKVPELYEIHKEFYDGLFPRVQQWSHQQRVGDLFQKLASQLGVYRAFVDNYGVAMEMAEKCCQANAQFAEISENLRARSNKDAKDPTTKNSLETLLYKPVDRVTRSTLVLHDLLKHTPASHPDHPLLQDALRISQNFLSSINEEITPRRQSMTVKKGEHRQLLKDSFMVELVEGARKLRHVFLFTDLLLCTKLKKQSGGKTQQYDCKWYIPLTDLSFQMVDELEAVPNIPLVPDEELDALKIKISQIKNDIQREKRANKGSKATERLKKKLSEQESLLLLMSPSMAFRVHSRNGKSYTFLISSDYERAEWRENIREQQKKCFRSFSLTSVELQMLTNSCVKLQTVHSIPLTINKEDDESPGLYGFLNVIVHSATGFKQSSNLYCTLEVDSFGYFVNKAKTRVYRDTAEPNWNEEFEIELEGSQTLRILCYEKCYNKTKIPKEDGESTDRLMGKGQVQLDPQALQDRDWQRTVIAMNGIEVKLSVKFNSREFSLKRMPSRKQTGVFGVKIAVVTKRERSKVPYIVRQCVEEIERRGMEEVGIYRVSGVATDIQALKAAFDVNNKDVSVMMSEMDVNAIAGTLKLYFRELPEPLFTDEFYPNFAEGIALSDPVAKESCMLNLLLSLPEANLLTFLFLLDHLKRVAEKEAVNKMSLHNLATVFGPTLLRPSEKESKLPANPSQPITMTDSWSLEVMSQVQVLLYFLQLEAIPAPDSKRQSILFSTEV
# K562 [27] = assay: Induction of apoptosis in human K562 cells assessed as early apoptotic cells at 20 nM incubated for 72 hrs by Annexin V-APC staining based flow cytometric analysis (reference value: 2.78%); type: functional
# HepG2 [28] = assay: Antiproliferative activity against human HepG2 cells at 100 nM incubated for 72 hrs in presence of palladium resins by CCK-8 assay; type: functional, cell-based
# Tubulin (Homo sapiens) [29] = molecular target: T1, Tubulin (Homo sapiens); assay: Inhibition of tubulin polymerization in human HepG2 cells assessed as decrease in polymerized alpha tubulin level at 19 nM incubated for 24 hrs by Western blotting analysis; type: cell-based
# K562 [30] = assay: Induction of cell cycle arrest in human K562 cells assessed as accumulation of cells at G2 phase at 20 nM incubated for 72 hrs by PI staining based flow cytometric analysis ( Rvb = 8.5 %); type: functional
# HepG2 [31] = assay: Antitumor activity against human HepG2 cells xenografted in Balb/c mouse assessed as tumor growth inhibition at 20 mg/kg, iv administered daily for 14 days relative to control; type: functional; settings: HepG2, 336 h, time 14 day, read-out: TGI
# Tubulin (Homo sapiens) [32] = molecular target: T1, Tubulin (Homo sapiens); assay: In vivo inhibition of tubulin polymerization in human HepG2 cells xenografted in Balb/c mouse assessed as decrease in beta tubulin expression at 20 mg/kg, iv administered daily for 14 days incubated for 24 hrs by Western blot analysis; type: functional, organism-based; settings: time 14.0 day
# HepG2 [33] = assay: Antitumor activity against human HepG2 cells xenografted in Balb/c mouse assessed as cell necrosis at 20 mg/kg, iv administered daily for 14 days by TUNEL staining based analysis; type: functional, organism-based; settings: time 14.0 day
# Tubulin (Homo sapiens) [34] = molecular target: T1, Tubulin (Homo sapiens); assay: Inhibition of tubulin polymerization in human K562 cells assessed as decrease in polymerized alpha tubulin level at 16 nM incubated for 24 hrs by Western blotting analysis; type: cell-based
# Tubulin (Homo sapiens) [35] = molecular target: T1, Tubulin (Homo sapiens); assay: Inhibition of tubulin polymerization in human K562 cells assessed as decrease in alpha tubulin expression at 16 nM incubated for 24 hrs by Western blotting analysis; type: cell-based
# K562 [36] = assay: Induction of apoptosis in human K562 cells assessed as viable cells at 20 nM incubated for 72 hrs by Annexin V-APC staining based flow cytometric analysis (reference value: 94.21%); type: functional; settings: read-out: Activity
compound,measurement,setting,value
C=CCOc1cc(CNC(=O)c2cc(F)ccc2N2CCOCC2)ccc1OC,Ratio IC50,HepG2 [1],28.2
same,IC50 at 72 h,[2],5470 nM
same,Ratio IC50,K562 [3],248.8
same,t1/2,[4],> 24 h
same,IC50,K562 [5],3980 nM
same,selectivity ratio at 72 h,[6],25.6
same,Ratio IC50,H22 [7],13.9
same,IC50,H22 [8],282 nM
same,IC50,HepG2 [9],541 nM
C#CCOc1ccc(CNc2nc(N(C)c3ccc(OC)cc3)c3ccccc3n2)cc1,Ratio IC50,K562 [10],24.1
same,Ratio IC50,H22 [11],11.8
same,IC50 at 72 h,[2],703 nM
same,Ratio IC50,HepG2 [12],63.5
same,IC50,K562 [5],470 nM
same,selectivity ratio at 72 h,[13],15.5
same,t1/2,[14],4.2 h
same,IC50,H22 [8],229 nM
same,IC50,HepG2 [9],914 nM
C=CCOc1ccc(CNc2nc(N(C)c3ccc(OC)cc3)c3ccccc3n2)cc1,Ratio IC50,K562 [10],25.7
same,Ratio IC50,H22 [11],14.8
same,IC50 at 72 h,[2],353 nM
same,Ratio IC50,HepG2 [12],27.9
same,IC50,K562 [5],502 nM
same,selectivity ratio at 72 h,[13],7.8
same,t1/2,[14],> 24 h
same,IC50,H22 [8],285 nM
same,IC50,HepG2 [9],402 nM
C#CC(C)(C)Oc1cc(CNC(=O)c2cc(F)ccc2N2CCOCC2)ccc1OC,Ratio IC50,HepG2 [1],57.8
same,IC50 at 72 h,[2],1330 nM
same,Ratio IC50,K562 [3],28.7
same,t1/2,[4],14.5 h
same,IC50,K562 [5],460 nM
same,selectivity ratio at 72 h,[6],62.2
same,Ratio IC50,H22 [7],21.9
same,IC50,H22 [8],444 nM
same,IC50,HepG2 [9],1110 nM
C#CC(C)(C)Oc1ccc(CNc2nc(N(C)c3ccc(OC)cc3)c3ccccc3n2)cc1,Ratio IC50,K562 [10],26
same,Ratio IC50,H22 [11],24.5
same,IC50 at 72 h,[2],516 nM
same,Ratio IC50,HepG2 [12],34.1
same,IC50,K562 [5],508 nM
same,selectivity ratio at 72 h,[13],11.4
same,t1/2,[14],5.8 h
same,IC50,H22 [8],473 nM
same,IC50,HepG2 [9],491 nM
COc1ccc(CNC(=O)c2cc(F)ccc2N2CCOCC2)cc1O,Activity,K562 [15],45.95%
same,Activity,K562 [16],4.31%
same,Activity,K562 [17],Active
same,IC50 at 72 h,[2],21.4 nM
same,Activity,Tubulin (Homo sapiens) [18],Active
same,inhibition,Tubulin (Homo sapiens) [19],Active
same,inhibition,Tubulin (Homo sapiens) [20],Active
same,Activity,HepG2 [21],Active
same,Activity,Tubulin (Homo sapiens) [22],Active
same,Activity,K562 [23],59.77%
same,IC50,K562 [5],16 nM
same,Activity,K562 [24],32.73%
same,inhibition,Tubulin (Homo sapiens) [25],Active
same,inhibition,[26],Active
same,Activity,K562 [27],20.68%
same,Activity,HepG2 [28],Active
same,inhibition,Tubulin (Homo sapiens) [29],Active
same,Activity,K562 [30],21.32%
same,inhibition in vivo at 20 mg/kg,HepG2 [31],49.6%
same,Activity,Tubulin (Homo sapiens) [32],Active
same,IC50,H22 [8],20.3 nM
same,Activity,HepG2 [33],Active
same,inhibition,Tubulin (Homo sapiens) [34],Active
same,inhibition,Tubulin (Homo sapiens) [35],Active
same,viability at 0.02 µM,K562 [36],15.2%
same,IC50,HepG2 [9],19.2 nM
COc1ccc(N(C)c2nc(NCc3ccc(O)cc3)nc3ccccc23)cc1,IC50 at 72 h,[2],45.4 nM
same,IC50,K562 [5],19.5 nM
same,IC50,H22 [8],19.3 nM
same,IC50,HepG2 [9],14.4 nM
